Measurements taken from ChEMBL document CHEMBL1201862, “PubChem BioAssay data set” (2004).
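Results reflect a 48-hour exposure of cells in 96-well plates to compound at five concentrations. The concentration for 50% growth inhibition is given as GI50.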 Calls of active or inactive are those of the source. No stated cut-off is given here; in the data, active = GI50 up to about 1.1 µM and inactive = higher.

Legend:
Assay in all cases: growth of human tumour cells (NCI), 48 h
786-0 = test system: 786-0
A498 = test system: A498
BT-549 = test system: BT-549
EKVX = test system: EKVX
HCC 2998 = test system: HCC 2998
HCT-116 = test system: HCT-116
HCT-15 = test system: HCT-15
HT-29 = test system: HT-29
Hs-578T = test system: Hs-578T
M14 = test system: M14
MDA-MB-231 = test system: MDA-MB-231
NCI-H23 = test system: NCI-H23
NCI/ADR-RES = test system: NCI/ADR-RES
OVCAR-3 = test system: OVCAR-3
OVCAR-4 = test system: OVCAR-4
OVCAR-5 = test system: OVCAR-5
PC-3 = test system: PC-3
SF-295 = test system: SF-295
SK-MEL-28 = test system: SK-MEL-28
SK-MEL-2 = test system: SK-MEL-2
SK-MEL-5 = test system: SK-MEL-5
SK-OV-3 = test system: SK-OV-3
TK-10 = test system: TK-10
UACC-257 = test system: UACC-257
UO-31 = test system: UO-31

SMILES: O=C1C(O)=C(Cc2ccccc2)C(=O)c2ccccc21
- GI50 (786-0): 61.7 µM (inactive)
- GI50 (A498): 51.6 µM (inactive)
- GI50 (BT-549): 70.8 µM (inactive)
- GI50 (EKVX): 55.1 µM (inactive)
- GI50 (HCC 2998): 83.2 µM (inactive)
- GI50 (HCT-116): 50.6 µM (inactive)
- GI50 (HCT-15): 35.6 µM
- GI50 (HT-29): 48.9 µM (inactive)
- GI50 (Hs-578T): 37.3 µM (inactive)
- GI50 (M14): 34.8 µM (inactive)
- GI50 (MDA-MB-231): 91.2 µM (inactive)
- GI50 (NCI-H23): 49.1 µM (inactive)
- GI50 (NCI/ADR-RES): 49.5 µM (inactive)
- GI50 (OVCAR-3): 27.7 µM (inactive)
- GI50 (OVCAR-4): 46.6 µM (inactive)
- GI50 (OVCAR-5): > 100 µM (inactive)
- GI50 (PC-3): 54.5 µM (inactive)
- GI50 (SF-295): 45.3 µM (inactive)
- GI50 (SK-MEL-28): 42.3 µM (inactive)
- GI50 (SK-MEL-2): 42 µM (inactive)
- GI50 (SK-MEL-5): 18.7 µM (inactive)
- GI50 (SK-OV-3): 63.5 µM (inactive)
- GI50 (TK-10): > 100 µM (inactive)
- GI50 (UACC-257): 46.8 µM (inactive)
- GI50 (UO-31): 41.6 µM (inactive)
